Results from the supplement of paper PMC13380429.

Columns and labels:
[1] = tested on: A549-ACE2; experiment: phospholipidosis EC50; higher = less potent phospholipidosis inducer
[2] = tested on: U2OS; experiment: cell viability relative to DMSO; higher = less toxic; conditions: 72 h
[3] = tested on: HepG2; experiment: as above; conditions: 72 h
[4] = tested on: Caco-2; experiment: as above; conditions: 72 h
[5] = tested on: Calu-3; experiment: as above; conditions: 72 h
[6] = tested on: Vero E6; experiment: as above; conditions: 72 h
[7] = tested on: A549-ACE2; experiment: drug-induced phospholipidosis relative to tamoxifen; higher = more phospholipidosis
[8] = tested on: A549-ACE2 infected with SARS-CoV-2; experiment: cell count relative to DMSO; higher = less toxic; conditions: 24 h
[9] = tested on: U2OS; experiment: relative viability EC50 (midpoint between 100% and the lowest measured viability); higher = less toxic; conditions: 72 h
[10] = tested on: Caco-2; experiment: as above; conditions: 72 h
[11] = tested on: Calu-3; experiment: as above; conditions: 72 h
[12] = tested on: Vero E6; experiment: as above; conditions: 72 h
[13] = tested on: U2OS; experiment: drug sensitivity score (DSS) for viability; higher = more toxic; extreme values may be limits of the assay; conditions: 72 h
[14] = tested on: HepG2; experiment: as above; conditions: 72 h
[15] = tested on: Caco-2; experiment: as above; conditions: 72 h
[16] = tested on: Calu-3; experiment: as above; conditions: 72 h
[17] = tested on: Vero E6; experiment: as above; conditions: 72 h
[18] = tested on: A549-ACE2 infected with SARS-CoV-2; experiment: morphology score (similarity to uninfected cells); higher = more like uninfected cells; conditions: 24 h
[19] = tested on: A549-ACE2 infected with SARS-CoV-2; experiment: SARS-CoV-2 infection rate relative to DMSO; higher = more infection; conditions: 24 h
[20] = tested on: HepG2; experiment: relative viability EC50 (midpoint between 100% and the lowest measured viability); higher = less toxic; conditions: 72 h

Cc1[nH]c(/C=C2\C(=O)Nc3ccc(S(=O)(=O)N(C)c4cccc(Cl)c4)cc32)c(C)c1C(=O)N1CCN(C)CC1
phospholipidosis EC50 ([1]; 24 h): 4.77 µM | phospholipidosis EC50 ([1]; 48 h): 3.94 µM | cell viability ([2]; 1 nM): 104% | cell viability ([2]; 10 nM): 98.2% | cell viability ([2]; 100 nM): 106% | cell viability ([2]; 1000 nM): 101% | cell viability ([2]; 10000 nM): 91% | cell viability ([3]; 1 nM): 106% | cell viability ([3]; 10 nM): 105% | cell viability ([3]; 100 nM): 93.5% | cell viability ([3]; 1000 nM): 103% | cell viability ([3]; 10000 nM): 66.5% | cell viability ([4]; 1 nM): 96% | cell viability ([4]; 10 nM): 98.5% | cell viability ([4]; 100 nM): 99.9% | cell viability ([4]; 1000 nM): 97.5% | cell viability ([4]; 10000 nM): 85.2% | cell viability ([5]; 1 nM): 106% | cell viability ([5]; 10 nM): 93.5% | cell viability ([5]; 100 nM): 112% | cell viability ([5]; 1000 nM): 101% | cell viability ([5]; 10000 nM): 83.8% | cell viability ([6]; 1 nM): 101% | cell viability ([6]; 10 nM): 102% | cell viability ([6]; 100 nM): 94.3% | cell viability ([6]; 1000 nM): 107% | cell viability ([6]; 10000 nM): 88.1% | drug-induced phospholipidosis ([7]; 0.3 µM, 24 h): 22.5% | drug-induced phospholipidosis ([7]; 0.3 µM, 48 h): 12.7% | drug-induced phospholipidosis ([7]; 0.3 µM, 72 h): 9.3% | drug-induced phospholipidosis ([7]; 0.833333 µM, 24 h): 42.3% | drug-induced phospholipidosis ([7]; 0.833333 µM, 48 h): 30.6% | drug-induced phospholipidosis ([7]; 0.833333 µM, 72 h): 20.7% | drug-induced phospholipidosis ([7]; 3.33333 µM, 24 h): 133% | drug-induced phospholipidosis ([7]; 3.33333 µM, 48 h): 129% | drug-induced phospholipidosis ([7]; 3.33333 µM, 72 h): 128% | drug-induced phospholipidosis ([7]; 6.66667 µM, 24 h): 230% | drug-induced phospholipidosis ([7]; 10 µM, 24 h): 269% | drug-induced phospholipidosis ([7]; 10 µM, 48 h): 333% | drug-induced phospholipidosis ([7]; 30 µM, 24 h): 324% | drug-induced phospholipidosis ([7]; 30 µM, 48 h): 340% | cell count ([8]; 0.3 µM): 94% | cell count ([8]; 3 µM): 105% | cell count ([8]; 10 µM): 70% | cell count ([8]; 30 µM): 85% | relative viability EC50 [9]: > 10 µM | relative viability EC50 [10]: > 10 µM | relative viability EC50 [11]: > 10 µM | relative viability EC50 [12]: > 10 µM | drug sensitivity score [13]: 0 | drug sensitivity score [14]: 1.3 | drug sensitivity score [15]: 0.5 | drug sensitivity score [16]: 0.3 | drug sensitivity score [17]: 0 | morphology score ([18]; 0.3 µM): 0.29 | morphology score ([18]; 3 µM): 0.61 | morphology score ([18]; 10 µM): 0.45 | morphology score ([18]; 30 µM): 0.53 | SARS-CoV-2 infection rate ([19]; 0.3 µM): 89% | SARS-CoV-2 infection rate ([19]; 3 µM): 46% | SARS-CoV-2 infection rate ([19]; 10 µM): 20% | SARS-CoV-2 infection rate ([19]; 30 µM): 34%

C=CCN(C)CCCCCCOc1ccc(C(=O)c2ccc(Br)cc2)c(F)c1 [Ro-48-8071]
phospholipidosis EC50 ([1]; 24 h): 3.35 µM | phospholipidosis EC50 ([1]; 48 h): 4.65 µM | phospholipidosis EC50 ([1]; 72 h): 5.61 µM | cell viability ([2]; 1 nM): 98.6% | cell viability ([2]; 10 nM): 102% | cell viability ([2]; 100 nM): 93.5% | cell viability ([2]; 1000 nM): 96% | cell viability ([2]; 10000 nM): 79% | cell viability ([3]; 1 nM): 104% | cell viability ([3]; 10 nM): 98.3% | cell viability ([3]; 100 nM): 92.1% | cell viability ([3]; 1000 nM): 93.7% | cell viability ([3]; 10000 nM): 34% | cell viability ([4]; 1 nM): 97.5% | cell viability ([4]; 10 nM): 101% | cell viability ([4]; 100 nM): 102% | cell viability ([4]; 1000 nM): 81.7% | cell viability ([4]; 10000 nM): 45.9% | cell viability ([5]; 1 nM): 95.1% | cell viability ([5]; 10 nM): 95.7% | cell viability ([5]; 100 nM): 97.4% | cell viability ([5]; 1000 nM): 99.7% | cell viability ([5]; 10000 nM): 55.3% | cell viability ([6]; 1 nM): 104% | cell viability ([6]; 10 nM): 100% | cell viability ([6]; 100 nM): 100% | cell viability ([6]; 1000 nM): 94.6% | cell viability ([6]; 10000 nM): 84.5% | drug-induced phospholipidosis ([7]; 0.3 µM, 24 h): 2.62% | drug-induced phospholipidosis ([7]; 0.3 µM, 48 h): 5.45% | drug-induced phospholipidosis ([7]; 0.3 µM, 72 h): 4.46% | drug-induced phospholipidosis ([7]; 0.833333 µM, 24 h): 7.33% | drug-induced phospholipidosis ([7]; 0.833333 µM, 48 h): 7.84% | drug-induced phospholipidosis ([7]; 0.833333 µM, 72 h): 5.92% | drug-induced phospholipidosis ([7]; 3.33333 µM, 24 h): 44.1% | drug-induced phospholipidosis ([7]; 3.33333 µM, 48 h): 36.4% | drug-induced phospholipidosis ([7]; 3.33333 µM, 72 h): 27.7% | drug-induced phospholipidosis ([7]; 6.66667 µM, 24 h): 86.2% | drug-induced phospholipidosis ([7]; 6.66667 µM, 48 h): 96.4% | drug-induced phospholipidosis ([7]; 6.66667 µM, 72 h): 95.3% | drug-induced phospholipidosis ([7]; 10 µM, 24 h): 90.2% | drug-induced phospholipidosis ([7]; 10 µM, 48 h): 115% | drug-induced phospholipidosis ([7]; 10 µM, 72 h): 127% | drug-induced phospholipidosis ([7]; 30 µM, 24 h): 82% | cell count ([8]; 0.3 µM): 103% | cell count ([8]; 3 µM): 114% | cell count ([8]; 10 µM): 117% | cell count ([8]; 30 µM): 70% | relative viability EC50 [9]: > 10 µM | relative viability EC50 [20]: 2.38 µM | relative viability EC50 [10]: 1.31 µM | relative viability EC50 [12]: > 10 µM | drug sensitivity score [13]: 1.1 | drug sensitivity score [14]: 4.6 | drug sensitivity score [15]: 5.5 | drug sensitivity score [16]: 2.3 | drug sensitivity score [17]: 0.7 | morphology score ([18]; 0.3 µM): -0.04 | morphology score ([18]; 3 µM): 0.67 | morphology score ([18]; 10 µM): 0.73 | morphology score ([18]; 30 µM): 0.1 | SARS-CoV-2 infection rate ([19]; 0.3 µM): 102% | SARS-CoV-2 infection rate ([19]; 3 µM): 59% | SARS-CoV-2 infection rate ([19]; 10 µM): 25% | SARS-CoV-2 infection rate ([19]; 30 µM): 38%
